Reference: patent publication US20200392158A1, “INHIBITORS OF LEUCINE RICH REPEAT KINASE 2” (GLAXOSMITHKLINE INTELLECTUAL PROPERTY DEVELOPMENT LIMITED, priority 2017, published 2020)

Target: T1, LRRK2 kinase in SH-SY5Y cells over-expressing recombinant full length LRRK2 (Homo sapiens, UniProt Q5S007)
T1 construct: A BacMam virus expressing full length recombinant LRRK2 was purchased from Invitrogen; host or cells: SH-SY5Y human neuroblastoma cells transduced with BacMam LRRK2 virus
Assay: Recombinant cellular LRRK2 AlphaScreen assay (LRRK2 Ser935 phosphorylation)
Type: cell-based
Conditions: 60 min
Description: b. Recombinant Cellular LRRK2 AlphaScreen Assay
To determine the activity of compounds against LRRK2 kinase in cells, the observed LRRK2 kinase-dependent modulation of LRRK2 Ser 935 phosphorylation (Dzamko et al., 2010, Biochem. J. 430: 405-413) was utilized to develop a quantitative 384 well plate-based immunoassay of LRRK2 Ser935 phosphorylation in the human neuroblastoma cell line SH-SY5Y, engineered to over-express recombinant full length LRRK2 protein.
A BacMam virus expressing full length recombinant LRRK2 was purchased from Invitrogen and amplified by inoculation of SF-9 cells at MOI 0.3 for 4-5 days in Sf-900 III SFM medium supplemented with 3% fetal bovine serum. Infected cell cultures were then centrifuged at 2000 g for 20 minutes, viral supernatant titer determined by anti-gp64 plaque assay and stored at 4° C.
Affinity-purified anti-phospho LRRK2 Ser935 sheep polyclonal antibody (Dzamko et al., 2010, Biochem. J. 430: 405-413) was biotinylated by standard methods (PerkinElmer). Anti-LRRK2 rabbit polyclonal antibody was purchased from Novus Biologicals. AlphaScreen Protein A IgG Kit (including acceptor and donor beads) was purchased from Perkin Elmer.
SH-SY5Y cells were grown in DMEM/F12 medium with 10% dialysed fetal bovine serum and harvested by treatment with 0.5% trypsin-EDTA for 5 minutes at 37° C. followed by centrifugation at 1000 rpm for 4 minutes. The cell pellet was resuspended in Opti-MEM reduced serum media (Invitrogen) at 200,000 cells/ml and mixed with the BacMam LRRK2 virus at M01=50. 50 μl cell solutions were then dispensed to each well of a 384-well plate and incubated at 37° C., 5% CO2 for 24 hours.
Compounds were prepared at 10× final assay concentration as 11 point 1 in 4 serial I dilutions in Opti-MEM reduced serum medium (Invitrogen 31985070) containing 1% DMSO. On the day of assay, 5.5 μl of the compound solutions were transferred from the compound plate to the cell assay plate to achieve a top final assay concentration of 10 uM. DMSO (0.1% final assay concentration) was added to column 6 and 2-(benzyloxy)-5-methyl-4-(1-methyl-1H-pyrazol-4-yl)-N-(pyridin-3-yl)benzamide (2 μM final assay concentration) was added to column 18 to serve as 0% and 100% inhibition controls, respectively.
Cells were incubated at 37° C., 5% CO2 for 60 minutes. The medium was then removed and cells lysed by addition of 20 μl of cell lysis buffer (Cell Signaling Technology) and incubation at 4° C. for 20 minutes. 10 μl of antibody/acceptor bead mix [(1/1000 biotinylated-pS935 LRRK2 antibody, 1/1000 total-LRRK2 antibody, 1/100 Acceptor beads in AlphaScreen detection buffer (25 mM Hepes (pH 7.4), 0.5% Triton X-100, 1 mg/ml Dextran 500 and 0.1% BSA)] was then added to each well and plates incubated for 2 hours at ambient temperature in the dark. 10 μl of donor beads solution (1/33.3 donor beads in AlphaScreen detection buffer) was then added to each well. Following incubation for a further 2 hours at ambient temperature in the dark, plates were read on an EnVision™ plate reader at emission 520-620 nm with excitation 680 nm. Dose response curve data was based on a sigmoidal dose-response model.

T1 sequence (Q5S007 whole entry): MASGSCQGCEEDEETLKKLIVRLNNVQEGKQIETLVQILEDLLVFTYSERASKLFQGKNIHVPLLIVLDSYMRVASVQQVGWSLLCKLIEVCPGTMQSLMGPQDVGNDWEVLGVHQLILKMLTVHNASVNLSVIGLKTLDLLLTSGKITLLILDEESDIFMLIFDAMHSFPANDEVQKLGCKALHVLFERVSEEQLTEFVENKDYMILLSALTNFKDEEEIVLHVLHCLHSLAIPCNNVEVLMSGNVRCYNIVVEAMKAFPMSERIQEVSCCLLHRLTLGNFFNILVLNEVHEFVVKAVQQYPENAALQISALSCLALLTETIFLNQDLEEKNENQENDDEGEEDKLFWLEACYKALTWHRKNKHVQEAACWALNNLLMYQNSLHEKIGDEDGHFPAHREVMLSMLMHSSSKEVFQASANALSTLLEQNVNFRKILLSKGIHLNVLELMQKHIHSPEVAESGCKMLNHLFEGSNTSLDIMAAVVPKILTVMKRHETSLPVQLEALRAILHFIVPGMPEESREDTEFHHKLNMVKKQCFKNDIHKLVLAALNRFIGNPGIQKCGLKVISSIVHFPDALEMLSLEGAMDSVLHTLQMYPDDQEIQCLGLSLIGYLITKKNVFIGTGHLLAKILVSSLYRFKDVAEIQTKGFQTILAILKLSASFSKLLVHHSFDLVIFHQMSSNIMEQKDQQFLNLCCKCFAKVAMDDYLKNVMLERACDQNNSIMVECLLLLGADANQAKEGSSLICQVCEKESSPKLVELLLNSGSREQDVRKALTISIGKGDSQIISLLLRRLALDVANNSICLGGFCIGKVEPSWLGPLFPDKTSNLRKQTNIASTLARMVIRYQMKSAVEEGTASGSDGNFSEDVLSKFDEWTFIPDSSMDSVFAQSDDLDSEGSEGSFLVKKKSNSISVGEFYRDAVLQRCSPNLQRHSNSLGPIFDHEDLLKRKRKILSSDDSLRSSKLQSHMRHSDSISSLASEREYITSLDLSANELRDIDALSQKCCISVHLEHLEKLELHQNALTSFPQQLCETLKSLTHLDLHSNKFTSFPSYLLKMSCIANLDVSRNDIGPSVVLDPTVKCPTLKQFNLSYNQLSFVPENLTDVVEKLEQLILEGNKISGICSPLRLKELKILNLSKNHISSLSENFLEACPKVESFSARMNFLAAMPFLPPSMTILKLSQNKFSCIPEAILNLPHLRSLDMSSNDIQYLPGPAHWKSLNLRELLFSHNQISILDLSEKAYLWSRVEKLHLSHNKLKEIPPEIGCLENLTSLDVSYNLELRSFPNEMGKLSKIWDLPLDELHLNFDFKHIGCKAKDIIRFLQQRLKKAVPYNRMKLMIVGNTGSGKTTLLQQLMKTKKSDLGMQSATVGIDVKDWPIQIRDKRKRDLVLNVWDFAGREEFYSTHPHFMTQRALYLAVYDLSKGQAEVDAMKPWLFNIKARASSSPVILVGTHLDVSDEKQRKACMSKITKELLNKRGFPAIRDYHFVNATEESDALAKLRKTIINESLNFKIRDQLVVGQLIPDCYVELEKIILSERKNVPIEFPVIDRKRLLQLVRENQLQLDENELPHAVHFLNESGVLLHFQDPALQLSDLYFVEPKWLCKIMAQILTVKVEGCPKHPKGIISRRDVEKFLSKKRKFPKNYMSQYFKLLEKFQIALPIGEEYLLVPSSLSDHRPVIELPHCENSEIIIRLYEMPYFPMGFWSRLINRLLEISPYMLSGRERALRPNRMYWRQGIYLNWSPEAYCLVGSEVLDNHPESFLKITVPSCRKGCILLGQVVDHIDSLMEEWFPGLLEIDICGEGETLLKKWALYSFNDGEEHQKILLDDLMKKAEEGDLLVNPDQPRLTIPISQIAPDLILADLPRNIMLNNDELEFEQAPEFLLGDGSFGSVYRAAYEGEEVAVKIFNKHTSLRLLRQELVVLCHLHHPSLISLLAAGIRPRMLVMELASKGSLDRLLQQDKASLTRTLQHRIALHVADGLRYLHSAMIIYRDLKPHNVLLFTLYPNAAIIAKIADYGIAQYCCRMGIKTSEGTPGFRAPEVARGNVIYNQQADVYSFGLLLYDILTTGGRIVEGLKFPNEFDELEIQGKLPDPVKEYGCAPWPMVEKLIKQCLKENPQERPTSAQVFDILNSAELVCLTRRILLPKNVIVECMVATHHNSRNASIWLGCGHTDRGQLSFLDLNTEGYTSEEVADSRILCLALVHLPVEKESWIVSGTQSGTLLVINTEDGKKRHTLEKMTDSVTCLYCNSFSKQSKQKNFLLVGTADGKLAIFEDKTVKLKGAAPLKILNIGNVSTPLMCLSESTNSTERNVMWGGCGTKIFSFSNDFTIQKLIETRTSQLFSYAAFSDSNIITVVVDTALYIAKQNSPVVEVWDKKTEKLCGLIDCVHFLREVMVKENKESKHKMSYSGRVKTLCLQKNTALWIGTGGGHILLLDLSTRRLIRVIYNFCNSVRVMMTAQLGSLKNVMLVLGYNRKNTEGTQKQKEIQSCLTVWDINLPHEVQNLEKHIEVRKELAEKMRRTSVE

IC50	SMILES
≤ 100 nM	Cc1c2c(nn1C1CC(C)OC(C)C1)OCCCNc1nc(ncc1Cl)N2 (single isomer, unassigned) [E200, 14-Chloro-5-(2,6-dimethyloxan-4-yl)-4-methyl-8-oxa-2,5,6,12,16,17-hexaazatricyclo[11.3.1.0^3,7]heptadeca-1(16),3,6,13(17),14-pentaene]
≤ 100 nM	Cc1c2c(nn1C1CCOC(C)C1)OCCCNc1nc(ncc1Cl)N2 (single isomer, unassigned) [E202, 14-Chloro-4-methyl-5-(2-methyloxan-4-yl)-8-oxa-2,5,6,12,16,17-hexaazatricyclo[11.3.1.0^3,7]heptadeca-1(16),3,6,13(17),14-pentaene]
≤ 100 nM	COC1CNc2nc(ncc2Cl)Nc2c(nn(C3CCOC(C)C3)c2C)OC1 (single isomer, unassigned) [E206, 14-Chloro-10-methoxy-4-methyl-5-(2-methyloxan-4-yl)-8-oxa-2,5,6,12,16,17-hexaazatricyclo [11.3.1.0^3,7] heptadeca-1(16),3,6,13(17),14-pentaene]
≤ 100 nM	COC1CNc2nc(ncc2Cl)Nc2c(nn(C3CCCOC3)c2C)OC1 (single isomer, unassigned) [E229, 14-Chloro-10-methoxy-4-methyl-5-(oxan-3-yl)-8-oxa-2,5,6,12,16,17-hexaazatricyclo[11.3.1.0^3,7]heptadeca-1(17),3,6,13,15-pentaene]
≤ 100 nM	Cc1c2c(nn1C1CCOCC1F)OCCCNc1nc(ncc1Cl)N2 (single isomer, unassigned) [E233, 14-Chloro-5-(3-fluorooxan-4-yl)-4-methyl-8-oxa-2,5,6,12,16,17-hexaazatricyclo[11.3.1.0^3,7]heptadeca-1(16),3,6,13 (17),14-pentaene]
≤ 100 nM	COC1CCC(n2nc3c(c2C)Nc2ncc(Cl)c(n2)NCCCO3)CC1 (single isomer, unassigned) [E237, 14-Chloro-5-(4-methoxycyclohexyl)-4-methyl-8-oxa-2,5,6,12,16,17-hexaazatricyclo[11.3.1.0^3,7]heptadeca-1(16), 3,6,13(17),14-pentaene]
≤ 100 nM	COC1CCC(n2nc3c(c2C)Nc2ncc(Cl)c(n2)NCC(OC)CO3)CC1 (single isomer, unassigned) [E239, 14-Chloro-10-methoxy-5-(4-methoxycyclohexyl)-4-methyl-8-oxa-2,5,6,12,16,17-hexaazatricyclo [11.3.1. 0^3,7]heptadeca-1(16),3,6,13(17),14-pentaene]
≤ 100 nM	COC1CNc2nc(ncc2Cl)Nc2c(nn(C3CCC(C)CC3)c2C)OC1 (single isomer, unassigned) [E255, 14-Chloro-10-methoxy-4-methyl-5-(4-methylcyclohexyl)-8-oxa-2,5,6,12,16,17-hexaazatricyclo [11.3.1.0^3,7] heptadeca-1(16),3,6,13(17),14-pentaene]
≤ 100 nM	Cc1c2c(nn1C1CCC(C)CC1)OCCCNc1nc(ncc1Cl)N2 (single isomer, unassigned) [E257, 14-Chloro-4-methyl-5-(4-methylcyclohexyl)-8-oxa-2,5,6,12,16,17-hexaazatricyclo[11.3.1.0^3,7]heptadeca-1(16),3,6,13 (17),14-pentaene]
≤ 100 nM	Cc1c2c(nn1C1CCC(C(F)(F)F)CC1)OCCCNc1nc(ncc1Cl)N2 (single isomer, unassigned) [E276, 14-Chloro-4-methyl-5-[4-(trifluoromethyl)cyclohexyl]-8-oxa-2,5,6,12,16,17-hexaazatricyclo[11.3.1.0^3,7] heptadeca-1(16),3,6,13(17),14-pentaene]

The next lines start with the compound.

SMILES	IC50
COC1CNc2nc(ncc2Cl)Nc2c(nn(CCN3CCOCC3)c2C)OC1 (single isomer, unassigned) [E223, 14-Chloro-10-methoxy-4-methyl-5-[2-(morpholin-4-yl)ethyl]-8-oxa-2,5,6,12,16,17-hexaazatricyclo [11.3.1.0^3,7]heptadeca-1(16),3,6,13(17),14-pentaene]	≤ 100 nM
COC1CNc2nc(ncc2C(F)(F)F)Nc2c(nn(C3CCCOC3)c2C)OC1 (single isomer, unassigned) [E227, 10-Methoxy-4-methyl-5-(oxan-3-yl)-14-(trifluoromethyl)-8-oxa-2,5,6,12,16,17-hexaazatricyclo [11.3.1.0^3,7] heptadeca-1(17),3,6,13,15-pentaene]	≤ 100 nM
Cc1c2c(nn1C1CC3CCC(C1)O3)OCCC(C)Nc1nc(ncc1Cl)N2 (single isomer, unassigned) [E249, 14-Chloro-4,11-dimethyl-5-{8-oxabicyclo[3.2.1]octan-3-yl}-8-oxa-2,5,6,12,16,17-hexaazatricyclo[11.3.1.0^3,7] heptadeca-1(16),3,6,13(17),14-pentaene]	≤ 100 nM
COC1CNc2nc(ncc2Cl)Nc2c(nn(CC(F)(F)F)c2C)OC1 (single isomer, unassigned) [E269, 14-Chloro-10-methoxy-4-methyl-5-(2,2,2-trifluoroethyl)-8-oxa-2,5,6,12,16,17-hexaazatricyclo[11.3.1.0^3,7] heptadeca-1(16),3,6,13 (17),14-pentaene]	≤ 100 nM
Cc1c2c(nn1C1CCC(C(F)(F)F)CC1)OCCC(C)Nc1nc(ncc1Cl)N2 (single isomer, unassigned) [E281, 4-Chloro-4,11-dimethyl-5-[4-(trifluoromethyl)cyclohexyl]-8-oxa-2,5,6,12,16,17-hexaazatricyclo[11.3.1.0^3,7] heptadeca-1(16),3,6,13(17),14-pentaene]	≤ 100 nM
Cc1c2c(nn1C1CCOCC1)OCC(OC(F)F)CNc1nc(ncc1Cl)N2 (single isomer, unassigned) [E284, 14-Chloro-10-(difluoromethoxy)-4-methyl-5-(oxan-4-yl)-8-oxa-2,5,6,12,16,17-hexaazatricyclo[11.3.1.0^3,7] heptadeca-1(16),3,6,13(17),14-pentaene]	≤ 100 nM
Cc1c2c(nn1C1CCCOC1)OCCCNc1nc(ncc1Br)N2 (single isomer, unassigned) [E288, 14-Bromo-4-methyl-5-(oxan-3-yl)-8-oxa-2,5,6, 12,16,17-hexaazatricyclo[11.3.1.0^3,7]heptadeca-1(16),3,6,13(17), 14-pentaene]	≤ 100 nM
Cc1c2c(nn1C1CC(N3CCC(F)(F)C3)C1)OCCC(C)Nc1nc(ncc1Cl)N2 (single isomer, unassigned) [E314, 14-Chloro-5-[3-(3,3-difluoropyrrolidin-1-yl)cyclobutyl]-4,11-dimethyl-8-oxa-2,5,6,12,16,17-hexaazatricyclo [11.3.1.0^3,7]-heptadeca-1(16),3,6,13(17),14-pentaene]	≤ 100 nM
Cc1c2c(nn1C1COC1)OCC(F)CNc1nc(ncc1Cl)N2 (single isomer, unassigned) [E322, 14-Chloro-10-fluoro-4-methyl-5-(oxetan-3-yl)-8-oxa-2,5,6,12,16,17-hexaazatricyclo[11.3.1.0^3,7]heptadeca-1(16),3,6,13(17),14-pentaene]	≤ 100 nM
Cc1c2c(nn1C1COCCC1F)OCC[C@@H](C)Nc1nc(ncc1Cl)N2 (single isomer, unassigned) [E325]	≤ 100 nM
COC1COc2nc(ncc2Cl)Nc2c(nn(C3CCOCC3)c2C)OC1 (single isomer, unassigned) [E328, 14-Chloro-10-methoxy-4-methyl-5-(oxan-4-yl)-8,12-dioxa-2,5,6,16,17-pentaazatricyclo[11.3.1.0^3,7]heptadeca-1(16),3,6,13(17),14-pentaene]	≤ 100 nM
Cc1c2c(nn1C1CCOCC1)OCCC(C)Oc1nc(ncc1Cl)N2 (single isomer, unassigned) [E330, 14-Chloro-4,11-dimethyl-5-(oxan-4-yl)-8,12-dioxa-2,5,6,16,17-pentaazatricyclo[11.3.1.0^3,7]heptadeca-1(17), 3,6,13,15-pentaene]	≤ 100 nM
Cc1c2c(nn1C1CCOCC1F)OCC(F)CNc1nc(ncc1Cl)N2 (single isomer, unassigned) [E334, 14-Chloro-10-fluoro-5-(3-fluorooxan-4-yl)-4-methyl-8-oxa-2,5,6,12,16,17-hexaazatricyclo[11.3.1.0^3,7] heptadeca-1(16),3,6,13(17),14-pentaene]	≤ 100 nM
